One series in a line: Caco-2 permeation assay. Format: in vitro ADME. The following applies: human, 37 °C, pH 7.4/7.4. From the text: Caco-2 cells were provided by ATCC and checked for mycoplasma contamination. These cells are not listed by ICLAC as misidentified cell lines (October 3rd, 2014). A total of 0.4 × 10^5 Caco-2 cells (ATCC no. […] The paracellular barrier characteristics of Caco-2 cells monolayer was monitored using (i) measurement of […] and (ii) measurement of the permeability to the non-permeant fluorescent molecule, Lucifer Yellow. Caco-2 cells were trypsinized after 3 days of incubation while they cover 80–90% of the flask and seeded at a density of 5 × 10^5 in 75 cm^2 flasks in complete medium supplemented with 73 nM (∼0.04 μg ml^−1) of the antibacterial puromycin (3′-[α-amino-p-methoxyhydrocinnamamido]-3′-deoxy-N,Ndimethyladenosine dihydrochloride). After 5–6 days, Caco-2 cells reach high cells density (>0.5 × 10^5 cells per cm^2) and are then passage into cell HTS 24-well plates with 0.4 μm polycarbonate membrane inserts. Cells were seeded at 600,000 cells per cm^2 (200,000 cells per insert) and cultivated for 6 days in complete medium with puromycin. Media was replaced every second days. Compound solutions were prepared in HEPES-buffered Ringerŕs (RH) solution (NaCl 150 mM, KCl 5.2 mM, CaCl2 2.2 mM, MgCl2 0.2 mM, NaHCO3 6 mM, Glucose 2.8 mM, HEPES 5 mM, water for injection), pH=7.4 at a final concentration of 1 or 10 μM for tested drugs. For A→B transport experiment, 0.2 ml of the compound solution was placed on the apical side of the cells and samples were taken from the basolateral compartment. For B→A transport experiment 0.8 ml of the solution was placed on the basolateral side of the cells and samples were taken from apical side. Transport Studies were done in Transwell polycarbonate: HTS 24-well plate inserts (surface area: 0.33 cm^2–0.4 μm pore size). Cells were equilibrated for 10 min in transport buffer prior to the transport experiment, and then incubations with compounds were performed at 37 °C under agitation. After 1 h aliquots were taken from each compartment and sampled in 96-well plates with glass insert. Permeation and the % of recovery are calculated using the formulas below: […]
In general terms: Caco-2 cells form a polarised layer with tight junctions and transporters.

Series [1] can be described thus: LogD measurement octanol/PBS pH 7.4. Format: physicochemical. The settings on record: read-out: Logd7.4. On the procedure:
Ten microlitre of a 10 mM solution in DMSO of the compound are diluted either in 490 μl of PBS pH 7.4 or in organic solvent MeOH in a 700 μl-microtube (in triplicate). The tubes are gently shaken 24 h at room temperature, then centrifuged for 5 min at 4,000 r.p.m. The mixtures are filtered over 0.45 μm filters (Millex-LH Millipore). Twenty microlitre of sample are diluted in 180 μl of MeOH. The solubility is determined by the ratio of mass signal area PBS/ organic solvent. Forty microlitre of a 10 mM solution in DMSO of the compound were diluted in 1.960 ml of a 1/1 octanol /PBS at pH 7.4 mixture. The mixture was gently shaken 2 h at room temperature. Twenty microlitre of each phase was diluted in 480 μl of MeOH and analysed by LC–MS. Each compound is tested in triplicate. Log D was determined as the logarithm of the ratio of concentration of product in octanol and PBS respectively, determined by mass signals.

A further series addresses T1, hIDE (Homo sapiens, UniProt P14735).
T1 construct: made in house
T1 sequence (P14735 1-1019): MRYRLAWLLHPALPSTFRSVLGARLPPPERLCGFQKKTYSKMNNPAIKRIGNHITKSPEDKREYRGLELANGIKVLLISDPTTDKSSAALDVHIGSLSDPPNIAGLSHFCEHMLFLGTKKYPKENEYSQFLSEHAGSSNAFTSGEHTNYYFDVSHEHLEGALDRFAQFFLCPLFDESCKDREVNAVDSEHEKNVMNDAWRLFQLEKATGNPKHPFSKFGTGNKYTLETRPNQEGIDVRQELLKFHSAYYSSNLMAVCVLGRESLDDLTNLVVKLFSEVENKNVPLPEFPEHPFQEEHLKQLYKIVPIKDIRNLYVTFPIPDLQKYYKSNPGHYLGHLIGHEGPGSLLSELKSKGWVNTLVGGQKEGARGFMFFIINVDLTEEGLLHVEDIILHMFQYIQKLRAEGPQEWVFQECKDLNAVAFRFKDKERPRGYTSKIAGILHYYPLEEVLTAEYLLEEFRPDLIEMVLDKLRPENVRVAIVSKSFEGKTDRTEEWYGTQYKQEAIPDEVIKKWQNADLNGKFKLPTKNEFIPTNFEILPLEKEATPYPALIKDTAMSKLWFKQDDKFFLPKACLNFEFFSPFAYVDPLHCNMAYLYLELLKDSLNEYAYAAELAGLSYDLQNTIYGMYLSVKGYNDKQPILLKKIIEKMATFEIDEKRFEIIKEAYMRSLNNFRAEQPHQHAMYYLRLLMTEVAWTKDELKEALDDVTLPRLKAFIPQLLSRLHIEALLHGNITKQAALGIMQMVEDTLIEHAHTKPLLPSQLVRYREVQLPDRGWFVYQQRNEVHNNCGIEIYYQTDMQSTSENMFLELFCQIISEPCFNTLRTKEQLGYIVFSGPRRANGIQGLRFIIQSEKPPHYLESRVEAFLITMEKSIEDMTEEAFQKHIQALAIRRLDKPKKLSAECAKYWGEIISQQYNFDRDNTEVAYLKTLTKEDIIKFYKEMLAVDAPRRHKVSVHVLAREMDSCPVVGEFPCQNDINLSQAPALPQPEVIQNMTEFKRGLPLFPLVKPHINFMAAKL
As to the kind of experiment: Small-angle X-ray scattering (SAXS) of hIDE conformation. As to the method:
SAXS data were collected at the APS 18-ID (BioCAT) with the Mar 165 CCD detector at room temperature (24 °C). The incident X-ray wavelength is 1.033 Å. hIDE was purified as described before. After 2 gel-filtration, hIDE was concentrated and dialysis against 20 mM Hepes, pH 7.2, 100 mM NaCl. […] The data reducing and all data processing were carried out using ATSAS. P(r) function was calculated with GNOM[44], and SAXS data fitting was performed with CRYSOL[45].

By Papp A→B is commonly meant how fast a substance crosses the layer from the apical side. A higher Papp A→B goes with ready permeation. The term Papp B→A denotes the apparent permeability from the basolateral to the apical side of a cell layer. With `O=C(C[C@@H](Cc1ccc2ccccc2c1)n1cc(CNC(=O)c2ccc(F)cc2)nn1)NO` [Compound 1], the Papp A→B at 1 h, 1 μM in “Caco-2 permeation assay” (Caco-2, A→B, 1 μM) came out at 3.3 ×10⁻⁶ cm/s. The Papp A→B at 1 h, 10 μM in “Caco-2 permeation assay” (Caco-2, A→B, 10 μM) stood at 2.4 ×10⁻⁶ cm/s. For the same molecule, the Papp B→A at 1 h, 1 μM in the series “Caco-2 permeation assay” (Caco-2, B→A, 1 μM) came to 19 ×10⁻⁶ cm/s. Moreover, the Papp B→A at 1 h, 10 μM in the series “Caco-2 permeation assay” (Caco-2, B→A, 10 μM) is 17 ×10⁻⁶ cm/s. In addition, the logD in series [1] came to 2.2. Besides, the “radius of gyration (Rg) of IDE with compound” value at hIDE (53.1 Å without compound) amounted to 47.6 Å. For the same molecule, at hIDE (180 Å without compound), the “Dmax of IDE with compound” value amounted to 160 Å. In addition, on hIDE (∼63% open in the absence of compound, fit of SAXS profile), the “fraction of IDE in the open conformation with compound” value was roughly 16%.

The values are drawn from article PMC4580987, “Catalytic site inhibition of insulin-degrading enzyme by a small molecule induces glucose intolerance in mice” (Nature Communications, 2015).
